Source: EP3570868B1, “[…] ANTIMICROBIAL PEPTIDES AND THEIR APPLICATIONS FOR THE TREATMENT AND PREVENTION OF MUSCU[…]” (Ustav Organicke Chemie a Biochemie AV CR, v.v.i., priority 2017, dated 2018)

What was measured:
Bacillus subtilis = format: cell-based; conditions: B.s.; 37° C for 20 h
Summary of the method: (§1)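 Bacteria are grown to exponential phase, diluted and mixed with peptide solutions in LB so that wells hold 0.5–100 µmol.l^-1 peptide and about 10^5 CFU. Incubation runs 20 h at 37 °C under shaking, with absorbance at 540 nm followed throughout to give the MIC.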

Candida albicans = format: cell-based; conditions: C.a.; 37° C for 20 h
Escherichia coli = format: cell-based; conditions: E.c.; 37° C for 20 h
Summary of the method: as §1

[1] = test system: MRSA (clin. isolate Liberec); format: cell-based, Staphylococcus aureus; conditions: 37° C for 20 h
Summary of the method: as §1

[2] = test system: MRSA (clin. isolate Motol); format: cell-based, Staphylococcus aureus; conditions: 37° C for 20 h
Summary of the method: (§2)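 Broth microdilution with ca 10^5 CFU per well and peptides at final 0.5–100 µmol/l, tetracycline as standard. Plates shaken at 37 °C for 20 h with A540 read every 15 min; MIC taken from growth curves. MRSA 6271 and P. aeruginosa 5482 from the Czech national collection; other isolates clinical, from Motol.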

MRSA 6271 = format: cell-based, Staphylococcus aureus; conditions: 37° C for 20 h
Summary of the method: as §2

[3] = test system: S.e. (clin. isolate Motol); format: cell-based, Staphylococcus epidermidis; conditions: 37° C for 20 h
Summary of the method: as §2

[4] = test system: E.f. (clin. isolate Motol); format: cell-based, Enterococcus faecalis; conditions: 37° C for 20 h
Summary of the method: as §2

[5] = test system: P.a. (clin. isolate Liberec); format: cell-based, Pseudomonas aeruginosa; conditions: 37° C for 20 h
Summary of the method: as §1

P.a. 5482 = format: cell-based, Pseudomonas aeruginosa; conditions: 37° C for 20 h
Summary of the method: as §2

human red blood cells = test: Determination of haemolytic activity; format: cell-based; conditions: human red blood cells (5% v/v), 1 h at 37 °C; concentration for lysis of 50% of erythrocytes
Summary of the method: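 Peptides at 2-400 µmol.1^-1 were incubated with 5% v/v human erythrocytes in physiological solution for 1 h at 37 °C; haemoglobin release measured as supernatant absorbance at 540 nm after centrifugation, with 0.2% Triton X-100 as 100% lysis. Reported as LC50, the concentration lysing 50% of cells.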

[6] = test system: Candida albicans (clin. isolate Olomouc); test: Biofilm formation on the surface of a bone cement implant in femur heads; format: cell-based; conditions: two days, cement without peptide 8.0x10^4
Protocol: (§3) The resulting elastic paste is placed into a 2 ml plastic syringe (without needle) and pressed into the infected holes in the spongy part of the bone, where it polymerizes and hardens. For comparison, other similarly infected holes are filled with cement containing only an antibiotic or antimycotic agent. For comparison, a Vancogenx® cement (Tecresa S. p. A., Italy) is used, made from a mixture of a powdered polymer component containing vancomycin and gentamicin. The mixture in an amount of 125 mg is mixed with liquid monomer (50-60 µl) and then pressed into the openings as described above. In another embodiment, the cements are applied to uninfected holes, allowed to harden, and then microbes are pipetted into the hole excavated between implants. From there they penetrate through bone tissue and settle on the implants with consequent formation of biofilms.
After two days, implants are removed with metal spikes and tweezers, mechanically cleaned from debris of bone tissue, and washed four times with physiological saline (0.5 ml) in plastic tubes to remove any residual planktonic microbes or bone cells from their surface. The implants in closed tubes with 0.4 ml saline are then sonicated four times for 3 min with occasional shaking. The of microbial biofilm on the surface of the implant is thus disrupted and microbes are loosed into the physiological saline. The resulting suspension is subsequently diluted using the tenfold serial dilution for culturing on agar.
Evaluation of the effect of antimicrobial peptides on the formation of microbial biofilm on the surface of the implant made of the bone cement.

[7] = test system: Candida albicans ATCC MYA-2876; test: as above; format: cell-based; conditions: two days, cement without peptide 4.4x10^5
Protocol: The resulting elastic paste is placed into a 2 ml plastic syringe (without needle) and pressed into the infected holes in the spongy part of the bone, where it polymerizes and hardens. For comparison, other similarly infected holes are filled with cement containing only an antibiotic or antimycotic agent. […] The mixture in an amount of 125 mg is mixed with liquid monomer (50-60 µl) and then pressed into the openings as described above. In another embodiment, the cements are applied to uninfected holes, allowed to harden, and then microbes are pipetted into the hole excavated between implants. From there they penetrate through bone tissue and settle on the implants with consequent formation of biofilms.
After two days, implants are removed with metal spikes and tweezers, mechanically cleaned from debris of bone tissue, and washed four times with physiological saline (0.5 ml) in plastic tubes to remove any residual planktonic microbes or bone cells from their surface. The implants in closed tubes with 0.4 ml saline are then sonicated four times for 3 min with occasional shaking. The of microbial biofilm on the surface of the implant is thus disrupted and microbes are loosed into the physiological saline. The resulting suspension is subsequently diluted using the tenfold serial dilution for culturing on agar. […]

Candida glabrata DSY565 = test: as above; format: cell-based; conditions: two days, cement without peptide 1.3x10^6
Protocol: as §3
After two days, implants are removed with metal spikes and tweezers, mechanically cleaned from debris of bone tissue, and washed four times with physiological saline (0.5 ml) in plastic tubes to remove any residual planktonic microbes or bone cells from their surface. The implants in closed tubes with 0.4 ml saline are then sonicated four times for 3 min with occasional shaking. The of microbial biofilm on the surface of the implant is thus disrupted and microbes are loosed into the physiological saline. […]

[8] = test system: Candida albicans yeast (clinical isolate Olomouc); test: Comparison of two similar halictin peptides for biofilm formation on the implant surface (yeast pipetted into a hole between implants); format: cell-based; conditions: 3.5 mg peptide in 100 mg powder cement component; two days; implant without peptide 1.8 × 10^3
Protocol: The experiment was performed under similar conditions as described in Example 5. Here, 100 mg of the powder cement component was used to prepare a paste, which was mixed with in 3.5 mg of peptide XIII and subsequently 52 µl of liquid component. The resulting paste was thoroughly mixed and then pressed into a hole prepared in the spongy part of the bone. To a next hole in the spongy part of the same bone a paste was pressed, containing comparative peptide Hal 2/4 (3.5 mg) with the sequence H-[…]NH2, which was also prepared from 100 mg of the powder component and 52 µl of the liquid component. The third hole was filled with paste without peptide prepared from the same amount of components. The Candida albicans yeast (clinical isolate Olomouc), grown in YPG, was pipetted in the hole excavated between implants equidistant (approximately 1 cm) from each. From there, the yeast penetrated through the bone tissue and was deposited on the implant with consequent formation of biofilms.
Then the implants in closed tubes with 0.4 ml of saline were treated ultrasonically four times for three minutes with occasional shaking. This way, microbial biofilm on the surface of the implant was disrupted and microbes loosed into the physiological saline. The resulting suspension was then diluted in a decimal dilution series for culturing on agar. […]

Question: `CC[C@H](C)[C@H](NC(=O)[C@H](CCCCN)NC(=O)[C@H](CCCCN)NC(=O)[C@@H](CC(C)C)NC(=O)[C@H](CC(C)C)NC(=O)[C@H](CCCCN)NC(=O)[C@H](CCSC)NC(=O)[C@H](Cc1c[nH]c2ccccc12)NC(=O)[C@H](CCCCN)NC(=O)CN)C(=O)N[C@@H](CC(C)C)C(=O)N[C@@H](CCCCN)C(N)=O` [XIII] was tested. Which “Antimicrobial activity MIC” value (Bacillus subtilis) did it give?
Answer: 2,8 µmol.l^-1

Question: What about the “Antimicrobial activity MIC” value (Candida albicans) of the same compound?
Answer: 8,0 µmol.l^-1

Question: What about the “Antimicrobial activity MIC” value (Escherichia coli) of the same compound?
Answer: 10,0 µmol.l^-1

Question: What about the “Antimicrobial activity MIC” value [1] of the same compound?
Answer: 13,3 µmol.l^-1

Question: What about the “Antimicrobial activity MIC” value [2] of the same compound?
Answer: 32,0 µmol.l^-1

Question: What about the “Antimicrobial activity MIC” value (MRSA 6271) of the same compound?
Answer: 18,7 µmol.l^-1

Question: And the “Antimicrobial activity MIC” value [3]?
Answer: 4,0 µmol.l^-1

Question: And the “Antimicrobial activity MIC” value [4]?
Answer: >100 µM

Question: And the “Antimicrobial activity MIC” value [5]?
Answer: 32,0 µmol.l^-1

Question: And the “Antimicrobial activity MIC” value (P.a. 5482)?
Answer: 5,0 µmol.l^-1

Question: What about the “Hemolytic activity LC50” value (human red blood cells) of the same compound?
Answer: >400 µM

Question: What about the CFU/implant [6] of the same compound?
Answer: 0 CFU/implant

Question: And the CFU/implant [7]?
Answer: 6.0x10^3 CFU/implant

Question: What about the CFU/implant (Candida glabrata DSY565) of the same compound?
Answer: 2.4x10^3 CFU/implant

Question: And the “number of colonies from the surface of the implant” value [8]?
Answer: zero
